Columns and labels:
Test in all cases: KINOMEscan competitive binding
[1] = target: T1, TLK1 (Homo sapiens, UniProt Q9UKI8); conditions: n=1, read-out: Percent inhibition, TLK1
T1 construct: purchased DiscoverX (KINOMEscan)
T1 sequence (Q9UKI8 1-766): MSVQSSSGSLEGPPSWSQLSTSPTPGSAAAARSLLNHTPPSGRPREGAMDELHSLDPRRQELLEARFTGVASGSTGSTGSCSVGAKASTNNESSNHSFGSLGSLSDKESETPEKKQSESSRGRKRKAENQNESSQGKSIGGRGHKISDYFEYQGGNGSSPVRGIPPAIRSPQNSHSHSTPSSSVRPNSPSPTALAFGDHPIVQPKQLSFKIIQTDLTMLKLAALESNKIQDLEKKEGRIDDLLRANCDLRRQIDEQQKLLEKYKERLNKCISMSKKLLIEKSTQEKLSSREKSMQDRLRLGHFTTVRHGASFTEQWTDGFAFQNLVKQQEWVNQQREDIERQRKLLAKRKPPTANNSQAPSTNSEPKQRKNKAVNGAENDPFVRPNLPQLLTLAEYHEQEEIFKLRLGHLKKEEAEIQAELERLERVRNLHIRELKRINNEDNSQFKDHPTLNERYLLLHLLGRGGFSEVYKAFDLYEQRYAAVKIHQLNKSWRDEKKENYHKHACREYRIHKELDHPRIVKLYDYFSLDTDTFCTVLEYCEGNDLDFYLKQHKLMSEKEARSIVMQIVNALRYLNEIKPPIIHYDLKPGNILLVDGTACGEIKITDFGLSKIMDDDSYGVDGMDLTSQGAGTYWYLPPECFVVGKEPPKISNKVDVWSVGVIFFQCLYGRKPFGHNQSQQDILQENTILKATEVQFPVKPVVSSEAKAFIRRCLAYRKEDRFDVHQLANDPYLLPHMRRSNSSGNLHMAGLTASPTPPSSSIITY

[2] = target: T2, RPS6KA5(Kin.Dom.1) (Homo sapiens, UniProt O75582); conditions: n=1, read-out: Percent inhibition, RPS6KA5(Kin.Dom.1)
T2 construct: RPS6KA5(Kin.Dom.1); purchased DiscoverX (KINOMEscan)

[3] = target: T3, TGFBR1 (Homo sapiens, UniProt P36897); conditions: n=1, read-out: Percent inhibition, TGFBR1
T3 construct: purchased DiscoverX (KINOMEscan)
T3 sequence (P36897 34-503): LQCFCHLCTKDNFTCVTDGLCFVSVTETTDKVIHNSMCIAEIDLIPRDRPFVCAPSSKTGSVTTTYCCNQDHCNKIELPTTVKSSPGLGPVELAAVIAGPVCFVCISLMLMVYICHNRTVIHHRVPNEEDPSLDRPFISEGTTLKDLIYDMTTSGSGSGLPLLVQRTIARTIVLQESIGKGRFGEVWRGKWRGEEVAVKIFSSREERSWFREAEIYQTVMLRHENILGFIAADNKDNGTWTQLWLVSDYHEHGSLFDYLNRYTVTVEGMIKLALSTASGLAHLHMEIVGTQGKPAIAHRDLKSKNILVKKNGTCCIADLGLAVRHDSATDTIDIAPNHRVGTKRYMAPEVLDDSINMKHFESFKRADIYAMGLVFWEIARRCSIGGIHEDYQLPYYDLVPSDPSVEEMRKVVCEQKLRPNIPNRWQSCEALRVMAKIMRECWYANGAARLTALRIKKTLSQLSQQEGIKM

[4] = target: T4, JAK kinase domains (Homo sapiens, UniProt O60674); conditions: 10 µM, n=1; kinase JAK2(Kin.Dom.2); read-out: Percent inhibition JAK2(Kin.Dom.2)
T4 construct: purchased DiscoverX (KINOMEscan)
Source text: The kinases were expressed as fusions to T7 bacteriophage. This is a sensitive, competitive binding assay where test compounds were used to displace immobilized ATP-site binding probe ligands from kinases of interest. The amount of kinase that remained bound to the immobilized probe ligands on the solid support was quantified. Percentage inhibition data were was plotted on kinome trees using the web-based tool KinMap (http://www.kinhub.org/kinmap) ([60]).

[5] = target: T5, RPS6KA2(Kin.Dom.1) (Homo sapiens, UniProt Q15349); conditions: n=1, read-out: Percent inhibition, RPS6KA2(Kin.Dom.1)
T5 construct: RPS6KA2(Kin.Dom.1); purchased DiscoverX (KINOMEscan)

[6] = target: T6, PRKG1 (Homo sapiens, UniProt Q13976); conditions: n=1, read-out: Percent inhibition, PRKG1
T6 construct: purchased DiscoverX (KINOMEscan)
T6 sequence (Q13976 1-671): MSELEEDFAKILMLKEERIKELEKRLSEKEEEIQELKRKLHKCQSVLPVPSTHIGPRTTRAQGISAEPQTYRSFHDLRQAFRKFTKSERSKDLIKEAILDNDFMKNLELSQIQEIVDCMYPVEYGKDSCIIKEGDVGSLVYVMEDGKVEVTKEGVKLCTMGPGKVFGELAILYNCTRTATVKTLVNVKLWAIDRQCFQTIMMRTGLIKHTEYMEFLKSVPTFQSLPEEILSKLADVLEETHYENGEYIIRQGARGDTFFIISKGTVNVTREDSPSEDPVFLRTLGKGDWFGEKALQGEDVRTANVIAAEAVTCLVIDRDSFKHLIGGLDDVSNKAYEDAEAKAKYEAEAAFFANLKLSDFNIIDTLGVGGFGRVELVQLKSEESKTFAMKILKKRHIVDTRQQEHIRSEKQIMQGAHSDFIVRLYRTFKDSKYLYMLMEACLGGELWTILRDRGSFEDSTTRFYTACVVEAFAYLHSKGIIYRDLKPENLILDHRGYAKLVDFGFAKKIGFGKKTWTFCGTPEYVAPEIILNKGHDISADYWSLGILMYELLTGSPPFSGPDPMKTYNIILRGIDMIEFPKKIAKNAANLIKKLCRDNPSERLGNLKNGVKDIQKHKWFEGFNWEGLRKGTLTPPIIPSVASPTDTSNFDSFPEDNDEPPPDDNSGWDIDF

T5 sequence (Q15349 1-388 limits assumed): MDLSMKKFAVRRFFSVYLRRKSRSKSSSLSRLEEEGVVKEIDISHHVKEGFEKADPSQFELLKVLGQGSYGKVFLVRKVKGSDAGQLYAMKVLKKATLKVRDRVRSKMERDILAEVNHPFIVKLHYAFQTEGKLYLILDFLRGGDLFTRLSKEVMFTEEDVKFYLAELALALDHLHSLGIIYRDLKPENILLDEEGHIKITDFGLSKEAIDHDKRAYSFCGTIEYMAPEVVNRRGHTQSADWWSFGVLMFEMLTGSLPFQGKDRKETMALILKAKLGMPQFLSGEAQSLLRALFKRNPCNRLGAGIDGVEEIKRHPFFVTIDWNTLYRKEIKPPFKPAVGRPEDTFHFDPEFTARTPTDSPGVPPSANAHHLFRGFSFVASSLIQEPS
T4 sequence (O60674 840-1132): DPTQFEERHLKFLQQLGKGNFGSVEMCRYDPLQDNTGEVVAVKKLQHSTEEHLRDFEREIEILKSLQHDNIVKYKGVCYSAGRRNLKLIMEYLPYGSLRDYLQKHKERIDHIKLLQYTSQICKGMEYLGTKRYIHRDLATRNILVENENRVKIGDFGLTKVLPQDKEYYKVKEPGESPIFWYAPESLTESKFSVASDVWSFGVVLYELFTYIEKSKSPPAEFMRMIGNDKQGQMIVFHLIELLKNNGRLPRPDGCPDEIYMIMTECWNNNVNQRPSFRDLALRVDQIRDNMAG
T2 sequence (O75582 1-387 limits assumed): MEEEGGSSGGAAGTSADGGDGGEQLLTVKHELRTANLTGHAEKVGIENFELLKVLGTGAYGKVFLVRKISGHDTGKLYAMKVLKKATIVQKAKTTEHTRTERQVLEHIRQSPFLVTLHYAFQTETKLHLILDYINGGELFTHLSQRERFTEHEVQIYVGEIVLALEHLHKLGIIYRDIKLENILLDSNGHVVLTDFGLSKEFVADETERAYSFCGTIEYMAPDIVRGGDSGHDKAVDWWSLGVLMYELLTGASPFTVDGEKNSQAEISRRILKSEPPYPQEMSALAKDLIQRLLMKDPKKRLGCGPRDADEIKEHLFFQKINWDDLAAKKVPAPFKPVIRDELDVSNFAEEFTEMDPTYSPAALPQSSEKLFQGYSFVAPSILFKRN

Structure (SMILES)	inhibition at 10 µM [1]	inhibition at 10 µM [2]	inhibition at 10 µM [3]	inhibition at 10 µM [4]	inhibition at 10 µM [5]	inhibition at 10 µM [6]
CN1CCN(c2ccc(Nc3nccc(-c4cnn5ncccc45)n3)cc2C#N)CC1 [Compound 1]	99.2%	65.7%	78.8%	86.8%	77.6%	0%
COc1ccc(Nc2nccc(-c3cnn4ncccc34)n2)cc1 [Compound 2]	0%	0%	0%	89.7%	0%	0%
Cc1ccc(O)cc1Nc1ccnc(Nc2cccc(C(N)=O)c2)n1 [Compound 3]	0%	0%	100%	80.6%	0%	0%
Cc1ccc(O)cc1N(C)c1ccnc(Nc2cccc(S(N)(=O)=O)c2)n1 [Compound 4]	0%	0%	100%	90.7%	0%	0%
Fc1cccc(COc2ccc(Nc3ncnc4c3CN(CCN3CCOCC3)CC4)cc2Cl)c1 [Compound 6]	0%	0%	0%	0%	0%	0%
COc1cc(Nc2nccc(-c3sc(N)nc3-c3cccc(NC(=O)c4c(F)cccc4F)c3)n2)cc(OC)c1OC [Compound 7]	0%	97.4%	72.9%	0%	97.2%	0%
C[C@@H](Oc1cc(-c2cnc3ccccn23)sc1C(N)=O)c1ccccc1Cl [Compound 8]	0%	0%	0%	70.2%	70%	0%
c1ccc(COc2cccc(-c3ccnc4[nH]ccc34)c2)cc1 [Compound 9]	0%	0%	0%	0%	0%	0%
Clc1ccc(Nc2ncc(-c3ccccc3)s2)cc1 [Compound 10]	0%	0%	0%	0%	0%	0%
Nc1ncc2c(-c3ccncc3)c[nH]c2n1 [Compound 11]	0%	0%	0%	0%	0%	0%

— publication PMC9927415, “Tyrosine Kinase Inhibitors Display Potent Activity against Cryptosporidium parvum” (Microbiology Spectrum, 2022)
